Source: patent publication US10933091B1, “Composition and method for the treatment of type I diabetes” (Vector Vitale IP LLC, priority 2019, dated 2021)

Experiments:
[1] = Intraperitoneal administration to intact rats: accumulation of metals in liver and kidney tissues; conditions: day 1 and day 7 after discontinuation, in words
Description: The administration of these compositions was by intraperitoneal route.
Animals are placed in cages, 4 per cage, with free access to food/water. […] Administration is performed every other day, in the amount of 7 injections per animal (intraperitoneal method of drug administration). The dose of the drug injected to each animal was calculated on the basis of the ratio: 3750 μg of zinc per 1 kg of animal body weight. After the last injection, a half of the animals are maintained on hunger (for 12 hours) with free access to water. Upon expiration of this time period, the animals are taken out of the experiment. The second half of the animals continues to have free access to food/water for a further 7 days. On day 6 after the last injection, the animals are maintained on hunger (for 12 hours) with free access to water. Upon expiration of this time period, the animals are taken out of the experiment.
The total kidney, liver and muscle homogenates were prepared as follows. Organ excision and homogenization were carried out at a temperature of 1-4° C. Homogenization of tissues was carried out in 50 mM Tris-HCl buffer (pH 7.4) which contained 140 mM NaCl, 1 mM EDTA. The volume of the used buffer in ml was 5 times larger than the mass of isolated organs in grams. The isolated liver was perfused with chilled saline (0.9% NaCl) via the portal vein using a syringe. […]

[2] = test system: peripheral serotonergic system (duodenum); assay: Indicators of the peripheral serotonergic system (duodenum); assay type: in vivo, rats
Description: (§1) The tissue: buffer ratio was 1:10.
(§2) The samples were reprecipitated by centrifugation.
(§3) University. Medicine.-2000.-1, No. 494.-P. 40-43.
(§4) The supernatant was used in further studies.

[3] = test system: tryptophan, serotonin, monoamine oxidase; assay: Serum tryptophan, serotonin and monoamine oxidase activity; assay type: in vivo, rats
Description: as §2, §3

[4] = test system: central serotonergic system (brain); assay: Indicators of the central serotonergic system (brain); assay type: in vivo, rats
Description: as §1, §2, §3, §4

alkaline phosphatase = conditions: serum; DIO rats (high-fat diet), week 10
Description: To this end, high-fat diet obesity was induced in experimental animals as described in Example 2.
Serum alkaline phosphatase activity in the animals was measured spectrophotometrically using a Microlab 300 biochemical analyzer and standard PLIVA-Lachema Diagnostika test kits (Czech Republic).
As a result of hydrolytic cleavage of p-nitrophenyl phosphate catalyzed by alkaline phosphatase, p-nitrophenol is formed, which gives an intense yellow color in alkaline medium. The optical density of samples was measured at a wavelength of 405 nm. The alkaline phosphatase activity was expressed in relative units.

[5] = Levels of divalent metal ions in muscles, kidneys and liver, diet-induced obesity study; conditions: DIO rats (high-fat diet)
[6] = Serum biochemistry (albumin, triglycerides, cholesterol, free fatty acids), diet-induced obesity study; conditions: DIO rats (high-fat diet), week 10
Description: The levels of serum albumin in the animals were determined spectrophotometrically using a Microlab 300 biochemistry analyzer and standard PLIVA-Lachema Diagnostika test kits (Czech Republic).

CC(=O)[O-].CC(=O)[O-].[Zn+2] [Zn acetate, Zinc acetate, reference compound]
zinc level in kidney and liver tissues [1]: significantly increased

N[C@@H](CC(=O)[O-])C(=O)[O-].[Zn+2] [^64Zne, zinc aspartate]
Serotonin ([2]; DIO rats (high-fat diet)): 9.73 µg/g | Tryptophan ([2]; DIO rats (high-fat diet)): 89.4 µg/g | Serotonin ([2]; control rats (standard diet)): 7.41 ± 0.54 µg/g | Tryptophan ([2]; control rats (standard diet)): 154.7 ± 13.6 µg/g | Serotonin ([3]; DIO rats (high-fat diet)): 6.33 ± 0.51 µg/g | Tryptophan ([3]; DIO rats (high-fat diet)): 66.65 ± 9.62 µg/g | Serotonin ([3]; control rats (standard diet)): 10.16 ± 0.62 µg/g | Tryptophan ([3]; control rats (standard diet)): 56.12 ± 7.58 µg/g | Serotonin ([4]; DIO rats (high-fat diet)): 20.1 µg/g | Tryptophan ([4]; DIO rats (high-fat diet)): 31.56 µg/g | Serotonin ([4]; control rats (standard diet)): 25.51 ± 2.71 µg/g | Tryptophan ([4]; control rats (standard diet)): 87.71 ± 3.41 µg/g | Alkaline phosphatase activity (alkaline phosphatase): 87.6 ± 18.7 RU | Zinc level ([5]; kidneys): 20.28 ± 1.75 μg/ tissue | Zinc level ([5]; liver): 31.43 ± 1.78 μg/ tissue | Zinc level ([5]; muscles): 9.10 ± 0.42 μg/ tissue | zinc level in kidney and liver tissues [1]: significantly increased | Albumin levels [6]: 166.2 ± 15.8 RU | Cholesterol [6]: 2.83 ± 0.23 mmol/L | Free fatty acids [6]: 31.62 ± 7.92 mg/L | Triglycerides [6]: 2.79 ± 0.30 g/L
